From paper PMC10609273, “Radiosynthesis and Early Evaluation of a Positron Emission Tomography Imaging Probe [^18F]AGAL Targeting Alpha-Galactosidase A Enzyme for Fabry Disease” (Molecules, 2023)

How the values were obtained:
wild type mice = test: Dynamic in vivo PET/CT imaging after intravenous injection; parameters: species or system mouse; conditions: i.v.
Protocol: After intravenous injection of [^18F]AGAL in wild type mice, the radioactivity rapidly accumulated in key organs such as the kidneys, liver, and heart, with the kidneys having the highest peak standardized uptake value (SUV ~18) at 3 min followed by rapid washout from all organs to lower than 1 SUV by 30 min and remaining low until the end of the 90 min scan (Figure 6A,B).
Figure 6 Dynamic in vivo PET/CT imaging in wild type mice after [^18F]AGAL intravenous injection. Time course of average radioactivity concentrations (n = 4, Mean ± SD) from various organs shown for full 90 min (A) and first 10 min (B) after tracer injection. (C) Representative coronal sections of PET/CT scan images from a wild type mouse with frames averaged between 0–2 min, 2–10 min, 10–30 min, 30–60 min, and 60–90 min are shown. SUV: Standardized uptake value.
[^18F]AGAL PET imaging was performed on a dedicated small animal PET/CT scanner (Siemens Multimodality Inveon, Siemens Medical Solutions USA Inc., Knoxville, TN, USA). The wild-type mice (n = 3, male 129S6) were anesthetized with 3% isoflurane/medical air inhalation prior to the radiotracer injection and throughout the scan duration. A bolus intravenous injection (via the lateral tail vein) of [^18F]AGAL (~7.4 MBq) was administered followed by dynamic PET scans in list mode for 90 min. After the PET acquisition, a low-dose CT scan was acquired (80 kVp, 0.5 mA) for anatomical reference and to provide guidance for the delineation of selected tissues volume of interest (VOI). The acquired PET data were sorted into 0.5 mm sinogram bins and 25 time frames (4 × 15 s, 4 × 60 s, and 17 × 300 s) for image reconstruction using FORE/3D-OSEM-MAP. The reconstructed PET/CT images were analyzed with the Siemens Inveon Research Workplace software v4.0 or other appropriate software. The radioactivity retention within the selected tissue was obtained from mean voxel intensity values within the VOI and then converted to megabecquerels per milliliter using the calibration factor determined for the Inveon PET System. […]

[1] = Stability of the formulated product by analytical HPLC; format: physicochemical
Protocol: Stability of the product was monitored via analytical HPLC over time.
Approximately 2000 mCi of [^18F]fluoride was produced on a GE PETtrace 800 cyclotron and delivered to the ^18F target delivery vial of a GE FX2 N radiosynthesis module (Figure 4). The irradiated target water was passed through a pre-conditioned Sep-PAK Light QMA Cartridge to trap [^18F]fluoride, followed by elution from the cartridge into reactor 1 using 3 mg […] and 13 mg Cryptand 222 in 0.6 mL of 50% acetonitrile in water. The contents of reactor 1 were dried via azeotropic distillation using a combination of heating, helium flow, and vacuum. An additional 1 mL of acetonitrile was introduced to reactor 1 and the azeotropic drying process was repeated. The reactor temperature was then reduced to 30 °C, followed by introduction of 4-pentynyl p-tosylate (10 mg, ABX GmbH, Radeberg, Germany) in 1.0 mL acetonitrile (anhydrous). The reactor was then sealed and heated to 110 °C and allowed to react with stirring for 3 min. Reactor 1 was then opened to reactor 2, with the reactor 1 needle in the “up” position. […]

bone uptake (tracer defluorination) (wild type mice; PET images): No bone uptake | peak standardized uptake value (SUV), kidneys (wild type mice; at 3 min): ~ 18 SUV | standardized uptake value after washout, all organs (wild type mice; by 30 min until end of 90 min scan): lower than 1 SUV | decrease in RCP ([1]; after 6 h, with sodium ascorbate in the formulation (5 mg/mL)): less than 3% | decrease in RCP ([1]; after 6 h at room temperature, 10% EtOH in saline): 5–8%
Compound: O=C(CCCCCCCn1cc(CCC[18F])nn1)N1C2C(O)C(O)C(O)C(CO)C21 (centres unmarked) [[^18F]AGAL]
